Laboratory results from patent US20110077294A1, “R-(-) / S-(+)-7-[3-N SUBSTITUTED AMINO-2 HYDROXYPROPOXY] FLAVONES” (priority 2006, published 2011).

What was measured:
Format in all cases: in vivo
[1] = system: C57BL/KsBom-db/db mice; test: Blood glucose profile of db/db mice during daily treatment (antihyperglycemic activity)
Experimental: (§1) C57BL/KsBom-db/db mice (12-18 weeks old), weighing around 35+g bred in the animal house of CDRI, Lucknow, were used in the present experiments. The mice were housed in groups of 3 to 5 (same sex) in a room controlled for temperature (23±2.0 ° C.) and 12/12 hours light/dark cycle (lights on at 6.00 am). Body weight of each animal was measured daily from day 1 to day 10 of the experiment. All animals had free access to fresh water and normal pellet diet except on the day of the postprandial protocol (day 6) and during the overnight fast before the OGTT on day 10. The animals always had access to water during experimental periods. Blood glucose was checked every morning up till day 10. On day 10 an oral glucose tolerance test (OGTT) was performed after an overnight fasting. Blood glucose was measured at −30.0 min and test compounds were administered. The blood glucose was again measured at 0 min just post treatment and at this juncture glucose solution was given at a dose of 3 gm/kg to all the groups including the vehicle treated group. The blood glucose levels were checked at 30 min, 60 min, 90 min and 120 min post glucose administration. The data was analyzed for its significance on Prism software.

[2] = system: C57BL/KsBom-db/db mice; test: Serum lipid profile of treated db/db mice (antidyslipidemic activity); settings: 25 mg/kg
Experimental: as §1

[3] = system: C57BL/KsBom-db/db mice; test: as above; settings: db/db mice, 25 mg/kg
[4] = system: C57BL/KsBom-db/db mice; test: Oral glucose tolerance test (OGTT) on day 10 in db/db mice; settings: 25 mg/kg
Experimental: as §1

## CC(C)NC[C@H](O)COc1ccc2c(=O)cc(-c3cc(O)cc(O)c3)oc2c1 [S-002-857 (S), (S)-(+)-7-(2-Hydroxy-3-isopropylaminopropoxy)-3′,5′-dihydroxyflavone]
[1]; 25.0 mg/kg
  average blood glucose lowering: around 20%
[1]; 25 mg/kg, day 1
  Blood glucose, day 1 post treatment: 12.7 ± 2.61 mM
[1]; 25 mg/kg, day 1, vs sham
  Blood glucose % change compared to control, day 1: −1.60%
[1]; 25 mg/kg, day 2
  Blood glucose, day 2 post treatment: 12.3 ± 2.40 mM
[1]; 25 mg/kg, day 2, vs sham
  Blood glucose % change compared to control, day 2: −0.80%
[1]; 25 mg/kg, day 3
  Blood glucose, day 3 post treatment: 11.5 ± 1.80 mM
[1]; 25 mg/kg, day 3, vs sham
  Blood glucose % change compared to control, day 3: −8.13%
[1]; 25 mg/kg, day 4
  Blood glucose, day 4 post treatment: 11.3 ± 2.54 mM
[1]; 25 mg/kg, day 4, vs sham
  Blood glucose % change compared to control, day 4: −12.7%
[1]; 25 mg/kg, day 5
  Blood glucose, day 5 post treatment: 10.1 ± 2.08 mM
[1]; 25 mg/kg, day 5, vs sham
  Blood glucose % change compared to control, day 5: −25.3%
[1]; 25 mg/kg, day 6
  Blood glucose, day 6 post treatment: 9.19 ± 2.25 mM
[1]; 25 mg/kg, day 6, vs sham
  Blood glucose % change compared to control, day 6: −29.1%
[1]; 25 mg/kg, day 7
  Blood glucose, day 7 post treatment: 9.41 ± 1.37 mM
[1]; 25.0 mg/kg, day 7, statistically significant
  lowering in blood glucose, day 7: around 37.4%
[1]; 25 mg/kg, day 7, vs sham
  Blood glucose % change compared to control, day 7: −37.4%
[1]; 25 mg/kg, day 8
  Blood glucose, day 8 post treatment: 9.28 ± 1.02 mM
[1]; 25.0 mg/kg, day 8, statistically significant
  lowering in blood glucose, day 8: ~36.8%
[1]; 25 mg/kg, day 8, vs sham
  Blood glucose % change compared to control, day 8: −36.8%
[1]; 25 mg/kg, day 9
  Blood glucose, day 9 post treatment: 7.56 ± 2.13 mM
[1]; 25.0 mg/kg, day 9, statistically significant
  lowering in blood glucose, day 9: ~43.3%
[1]; 25 mg/kg, day 9, vs sham
  Blood glucose % change compared to control, day 9: −43.3%
[2]
  Serum lipid profile: Cholesterol: 152 ± 7.00 mg/dL
  Serum lipid profile: HDL-Chol: 65.0 ± 6.03 mg/dL
  Serum lipid profile: Triglycerides: 124 ± 3.51 mg/dL
  serum cholesterol, triglycerides (lipid profile) compared to sham treated (in words): not statistically significant
[2]; vs sham
  Cholesterol % change compared to control: −11.2%
  HDL-Chol % change compared to control: +17.3%
  Triglycerides % change compared to control: −6.54%
[3]
  elevation in HDL-cholesterol level than control: 17.3%
[4]; OGTT day 10, 0 min
  Blood glucose profile, 0 min post glucose load: 13.8 ± 2.18 mM
[4]; OGTT day 10, 0 min, vs sham
  Blood glucose % change compared to control, 0 min post glucose load: −21.1%
[4]; OGTT day 10, 30 min
  Blood glucose profile, 30 min post glucose load: 25.3 ± 0.58 mM
[4]; OGTT day 10, 30 min, vs sham
  Blood glucose % change compared to control, 30 min post glucose load: −23.7%
[4]; OGTT day 10, 60 min
  Blood glucose profile, 60 min post glucose load: 19.8 ± 1.20 mM
[4]; OGTT day 10, 60 min, vs sham
  Blood glucose % change compared to control, 60 min post glucose load: −26.9%
[4]; OGTT day 10, 90 min
  Blood glucose profile, 90 min post glucose load: 15.2 ± 0.48 mM
[4]; OGTT day 10, 90 min, vs sham
  Blood glucose % change compared to control, 90 min post glucose load: −31.5%
[4]; OGTT day 10, 120 min
  Blood glucose profile, 120 min post glucose load: 11.6 ± 0.58 mM
[4]; OGTT day 10, 120 min, vs sham
  Blood glucose % change compared to control, 120 min post glucose load: −37.6%
[4]; OGTT day 10, −30 min
  Blood glucose profile, −30 min post glucose load: 8.76 ± 1.90 mM
[4]; OGTT day 10, −30 min, vs sham
  Blood glucose % change compared to control, −30 min post glucose load: −32.2%
[4]; vs sham
  effect of 10 days treatment on glucose tolerance (overall improvement in OGTT): 27%
